Key:
Type in all cases: cell-based
CDK1 protein = molecular target: T1, CDK1 protein (Homo sapiens, UniProt P06493); assay: CDK1 protein degradation in OVCAR3 cells (Western blot); details: 24 h; for DC50: read-out: DC50 CDK1 (half-maximum degradation concentration); for percent CDK1 protein degradation at 0.05 µM: OVCAR-3, 50 nM test compound, read-out: level of CDK1 protein degradation
T1 construct: host or cells: OVCAR3
Experimental: (§1) OVCAR3 (Cobioer, CBP60294) cell line of exponential growth phase was inoculated on a 6-well cell culture plate (Corning, 3516) according to 3E5/well scheme; and the plate was incubated overnight in a 5%-carbon dioxide incubator at 37° C. The next day, the test compound was dissolved in DMSO (Sigma, RNBF5902) to prepare a 10-mM concentration stock solution. The stock solution was diluted with complete medium, giving working solutions of different concentrations. Working solution was added into the corresponding wells of the orifice plate. The plate was placed in a 5% carbon dioxide incubator, set at 37° C., and incubated for 24 h. The plate was removed from the incubator, and the cells were washed twice with precooled PBS (Gibco, 14190250), followed by addition of 40 μL RIPA lysis buffer (containing protease inhibitor (Invitrogen™, AM2696)) to each well. Adherent cells were scraped off with a cell scraper, and the cell lysate was transferred to a 1.5 mL centrifuge tube, and the tube was placed on ice for 30 minutes. After completion of cell lysis, the tube was centrifugated for 10 min at 4° C., 14000 rpm. The supernatant was transferred into a new 1.5-mL centrifuge tube, and the new tube was placed on ice, followed by measurement of the protein concentration with BCA protein detection kit (Thermo Fisher, 23225). A mixture of cell lysate (40 μL) and loading buffer (10 μL, 5×SDS (Beyotime, P0015L)) was placed into a water bath at 95° C. for 10 min to denature the protein. The denatured protein sample, 30 μL/well, was added into a corresponding well of 4-20% Bis-Tris gel (Kingsley, M00657). The initial voltage was adjusted to 80-V and run for 30 min, followed by voltage increased to 120 V, and run for another 40 min, until the strip had run to the appropriate position. After electrophoresis, iBlot2 (Life Technologies, IB21001) was used to transfer the film under the condition of 20 V and 7 min. At the end of film transfer, 5% skimmed milk powder was sealed at room temperature for 2 h, and then TBST (Thermo Scientific, 28360) buffer solution was used to rinse for three times, 10 minutes each time. Skimmed milk powder (5%) was diluted with the first antibody in the appropriate proportion, and the working solution of the first antibody was prepared and incubated overnight at 4° C. After the incubation of the first antibody, the membrane was washed three times at room temperature with TBST buffer solution, 10 minutes each time; and the second antibody was incubated with 5% skimmed milk powder at room temperature for 1 h. After washing the film for three times with TBST, ECL color developing solution (Thermofisher 34095) was added, and an image was taken on a Biorad Chemi Doc gel imager. The band gray value was analyzed (Image Lab).
(§2) Symbols of “−”, “+”, “++”, and “+++” indicate that the degradation level of CDK protein induced by test compound was 10% or less, 11 to 30%, 31 to 60%, and greater than 60%, respectively.
(§3) Half-maximum degradation concentrations (DC50s) of test compounds were calculated using GraphPad Prism and their values are shown in Table 4. Symbols of “++++”, “+++”, “++”, “+” and “−” represent DC50s equal or less than 10 nM, 11-50 nM, 51-100 nM, 101-200 nM, and >200 nM, respectively.

CDK2 protein = molecular target: T2, CDK2 protein (Homo sapiens, UniProt P24941); assay: CDK2 protein degradation in OVCAR3 cells (Western blot); details: 24 h; for level of CDK2 protein degradation: 50 nM test compound; for DC50: read-out: DC50 CDK2 (half-maximum degradation concentration)
T2 construct: host or cells: OVCAR3
Experimental: as §1, §2, §3

CDK4 protein = molecular target: T3, CDK4 protein (Homo sapiens, UniProt P11802); assay: CDK4 protein degradation in OVCAR3 cells (Western blot); details: 24 h; for DC50: read-out: DC50 CDK4 (half-maximum degradation concentration); for percent CDK4 protein degradation at 0.05 µM: OVCAR-3, 50 nM test compound, read-out: level of CDK4 protein degradation
T3 construct: host or cells: OVCAR3
Experimental: as §1, §2, §3

CDK6 protein = molecular target: T4, CDK6 protein (Homo sapiens, UniProt Q00534); assay: CDK6 protein degradation in OVCAR3 cells (Western blot); details: 24 h; for DC50: read-out: DC50 CDK6 (half-maximum degradation concentration); for percent CDK6 protein degradation at 0.05 µM: OVCAR-3, 50 nM test compound, read-out: level of CDK6 protein degradation
T4 construct: host or cells: OVCAR3
Experimental: as §1, §2, §3

OVCAR3 cells = assay: Cell proliferation study (Cell Titer Glo, 72 h); details: Homo sapiens, OVCAR-3, luminescence, read-out: IC50, inhibitory effect on cellular proliferation
Experimental: OVCAR3 (Cobioer, CBP60294) cell line in logarithmic growth phase was used for these experiments. The cell density was adjusted to 1.1×10^4/mL and the cells were inoculated into a 96-well cell culture plate (Corning, 3599), 95 μL per well (the number of cells per well was 1×10^3). The culture plate was placed in an incubator, with 5% carbon dioxide, at 37° C. and incubated overnight. On the next day, a 10 mM stock solution of test compound was prepared in DMSO (Sigma, RNBF5902). After gradient dilution, a series of working solutions with different concentrations of test compound was prepared using complete medium. Working solution was added into the corresponding wells of the orifice plate, and the plate was placed in a 5% carbon dioxide incubator and cultivated at 37° C. for 72 h, and then removed from the incubator. To each well was added 50 μL Cell Tier Glo (Promega, G7573), and the plate was incubated at room temperature for 10 min, followed by luminescence detection with an enzyme marker. The inhibition curve was obtained with GraphPad 7.0 software using four-parameter equation.

T1 sequence (P06493 whole entry): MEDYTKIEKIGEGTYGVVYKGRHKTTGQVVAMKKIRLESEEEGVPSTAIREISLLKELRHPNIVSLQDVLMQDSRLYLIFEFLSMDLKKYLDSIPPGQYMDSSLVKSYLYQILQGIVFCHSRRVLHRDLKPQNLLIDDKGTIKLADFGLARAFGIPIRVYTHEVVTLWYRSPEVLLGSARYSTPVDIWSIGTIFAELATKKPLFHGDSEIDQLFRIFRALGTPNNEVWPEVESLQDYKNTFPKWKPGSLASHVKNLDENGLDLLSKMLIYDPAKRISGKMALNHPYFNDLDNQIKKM
T3 sequence (P11802 whole entry): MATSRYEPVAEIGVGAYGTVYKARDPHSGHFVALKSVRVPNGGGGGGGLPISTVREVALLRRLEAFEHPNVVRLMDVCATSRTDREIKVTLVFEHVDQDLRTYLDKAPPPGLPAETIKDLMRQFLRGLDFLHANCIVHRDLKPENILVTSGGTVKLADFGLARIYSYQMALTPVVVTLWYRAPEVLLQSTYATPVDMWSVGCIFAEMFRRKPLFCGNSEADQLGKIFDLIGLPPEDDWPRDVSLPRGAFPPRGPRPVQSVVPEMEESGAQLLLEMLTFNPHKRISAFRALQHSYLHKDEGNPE
T4 sequence (Q00534 whole entry): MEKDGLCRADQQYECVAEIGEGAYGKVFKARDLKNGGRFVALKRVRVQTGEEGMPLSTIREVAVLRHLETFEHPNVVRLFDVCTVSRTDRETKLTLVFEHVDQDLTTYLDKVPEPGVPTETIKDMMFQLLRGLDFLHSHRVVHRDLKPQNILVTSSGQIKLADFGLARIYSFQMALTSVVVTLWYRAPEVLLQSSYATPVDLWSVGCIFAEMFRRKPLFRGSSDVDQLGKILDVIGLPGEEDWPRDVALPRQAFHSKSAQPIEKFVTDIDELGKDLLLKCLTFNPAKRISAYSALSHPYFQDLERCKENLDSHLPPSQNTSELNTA

Row | DC50 (CDK1 protein) | percent CDK1 protein degradation at 0.05 µM (CDK1 protein) | level of CDK2 protein degradation (CDK2 protein) | DC50 (CDK2 protein) | DC50 (CDK4 protein) | percent CDK4 protein degradation at 0.05 µM (CDK4 protein) | DC50 (CDK6 protein) | percent CDK6 protein degradation at 0.05 µM (CDK6 protein) | IC50 (OVCAR3 cells) | Structure (SMILES)
1 | < 10 nM | > 60% | +++ (greater than 60%) | < 10 nM | > 200 nM | ≤ 10% | > 200 nM | > 60% | < 100 nM | C[C@@]1(O)CCC[C@H]1n1c(=O)c(C(F)F)cc2cnc(NC3CCN(S(=O)(=O)C4CCN(CC5CCN(C6CN(c7cc8c(cc7F)C(=O)N(C7CCC(=O)NC7=O)C8=O)C6)CC5)CC4)CC3)nc21 (stereo partly shown) [Compound 37]
2 | > 200 nM | > 60% | +++ (greater than 60%) | > 200 nM | > 200 nM | ≤ 10% | > 200 nM | > 60% | < 100 nM | Cc1nc2c(F)cc(-c3nc(Nc4ccc(S(=O)(=O)C5CCN(C6CCN(C7CN(c8cc9c(cc8F)C(=O)N(C8CCC(=O)NC8=O)C9=O)C7)CC6)CC5)cc4)ncc3F)cc2n1C(C)C (stereo not shown) [Compound 64]
3 | < 10 nM | > 60% | +++ (greater than 60%) | < 10 nM | > 200 nM | ≤ 10% | < 10 nM | > 60% | < 100 nM | Cc1nc2c(F)cc(-c3nc(NC4CCN(S(=O)(=O)C5CCN(C6CN(C7CCN(c8cc9c(cc8F)C(=O)N(C8CCC(=O)NC8=O)C9=O)CC7)C6)CC5)CC4)ncc3F)cc2n1C(C)C (stereo not shown) [Compound 79]
4 | > 200 nM | ≤ 10% | ++ (31 to 60%) | > 200 nM | > 200 nM | ≤ 10% | < 10 nM | > 60% | < 100 nM | Cc1nc2c(F)cc(-c3nc(NC4CCN(S(=O)(=O)C5CCN(CC6CCN(C7CN(c8cc9c(cc8F)C(=O)N(C8CCC(=O)NC8=O)C9=O)C7)CC6)CC5)CC4)ncc3F)cc2n1C(C)C (stereo not shown) [Compound 80]
5 | 101 to 200 nM | 31 to 60% | ++ (31 to 60%) | 101 to 200 nM | > 200 nM | ≤ 10% | 101 to 200 nM | > 60% | < 100 nM | Cc1nc2c(F)cc(-c3nc(NC4CCN(S(=O)(=O)C5CCN(C6CCN(C7CN(c8cc9c(cc8F)C(=O)N(C8CCC(=O)NC8=O)C9=O)C7)CC6)CC5)CC4)ncc3F)cc2n1C(C)C (stereo not shown) [Compound 83]
6 | 11 to 50 nM | 31 to 60% | +++ (greater than 60%) | 101 to 200 nM | > 200 nM | ≤ 10% | > 200 nM | > 60% | < 100 nM | Cc1nc2c(F)cc(-c3nc(NC4CCN(S(=O)(=O)C5CCN(CC6CC7(C6)CN(c6cc8c(cc6F)C(=O)N(C6CCC(=O)NC6=O)C8=O)C7)CC5)CC4)ncc3F)cc2n1C(C)C (stereo not shown) [Compound 88]
7 | – | – | – | – | – | – | – | – | 101 to 1000 nM | Cc1nc2c(F)cc(-c3nc(NC4CCN(S(=O)(=O)C5CN(CC6CCN(c7cc8c(cc7F)C(=O)N(C7CCC(=O)NC7=O)C8=O)CC6)C5)CC4)ncc3F)cc2n1C(C)C (stereo not shown) [Compound 100]
8 | – | – | – | – | – | – | – | – | 101 to 1000 nM | Cc1nc2c(F)cc(-c3nc(NC4CCN(S(=O)(=O)C5CCN(CC6CC(N7CCC(c8cccc(C9CCC(=O)NC9=O)c8)CC7)C6)CC5)CC4)ncc3F)cc2n1C(C)C (stereo not shown) [Compound 102]

Row | Structure (SMILES) | DC50 (CDK1 protein) | percent CDK1 protein degradation at 0.05 µM (CDK1 protein) | level of CDK2 protein degradation (CDK2 protein) | DC50 (CDK2 protein) | DC50 (CDK4 protein) | percent CDK4 protein degradation at 0.05 µM (CDK4 protein) | DC50 (CDK6 protein) | percent CDK6 protein degradation at 0.05 µM (CDK6 protein) | IC50 (OVCAR3 cells)
9 | Cc1nc2c(F)cc(-c3nc(NC4CCN(S(=O)(=O)C5CCN(CC6CC7CCC(C6)N7c6cc7c(cc6F)C(=O)N(C6CCC(=O)NC6=O)C7=O)CC5)CC4)ncc3F)cc2n1C(C)C (stereo not shown) [Compound 99] | – | – | – | – | – | – | – | – | 101 to 1000 nM
10 | Cc1nc2c(F)cc(-c3nc(NC4CCN(S(=O)(=O)C5CCN(CC6CC7CCC(C6)N7C6CN(c7cc8c(cc7F)C(=O)N(C7CCC(=O)NC7=O)C8=O)C6)CC5)CC4)ncc3F)cc2n1C(C)C (stereo not shown) [Compound 101] | – | – | – | – | – | – | – | – | < 100 nM
